Measurements: PubChem BioAssay (NCI)
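Each compound was tested at five concentrations against cells in 96-well plates for 48 hours. TGI is the concentration that stops growth completely.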

Key:
Assay in all cases: growth of human tumour cells (NCI), 48 h
[1] = tested on: A549 NSCLC
[2] = tested on: UO-31 renal
[3] = tested on: SF-268 CNS
[4] = tested on: SNB-78 CNS
[5] = tested on: SNB-75 CNS
[6] = tested on: SK-OV-3 ovarian
[7] = tested on: SF-539 CNS
[8] = tested on: HOP-92 NSCLC
[9] = tested on: LOX IMVI melanoma
[10] = tested on: HCC-2998 colon
[11] = tested on: RXF 393 renal
[12] = tested on: COLO 205 colon
[13] = tested on: M14 melanoma
[14] = tested on: DLD-1 colon
[15] = tested on: OVCAR-4 ovarian
[16] = tested on: KM20L2 colon
[17] = tested on: SR leukemia
[18] = tested on: TK-10 renal
[19] = tested on: SF-295 CNS
[20] = tested on: SNB-19 CNS
[21] = tested on: NCI-H226 lung
[22] = tested on: HCT-15 colon
[23] = tested on: CAKI-1 renal
[24] = tested on: HL-60(TB) leukemia
[25] = tested on: MOLT-4 leukemia
[26] = tested on: DMS 273 small cell lung
[27] = tested on: UACC-257 melanoma
[28] = tested on: M19-MEL melanoma
[29] = tested on: ACHN renal
[30] = tested on: HCT-116 colon
[31] = tested on: U251 CNS
[32] = tested on: EKVX NSCLC
[33] = tested on: HT29 colon
[34] = tested on: IGROV1 ovarian
[35] = tested on: SK-MEL-5 melanoma
[36] = tested on: CCRF-CEM leukemia
[37] = tested on: OVCAR-3 ovarian
[38] = tested on: OVCAR-5 ovarian
[39] = tested on: RPMI-8226 leukemia
[40] = tested on: UACC-62 melanoma
[41] = tested on: KM12 colon
[42] = tested on: NCI-H460 lung
[43] = tested on: SN12C renal
[44] = tested on: MALME-3M melanoma
[45] = tested on: LXFL 529 NSCLC
[46] = tested on: NCI-H522 lung
[47] = tested on: 786-0 renal
[48] = tested on: A498 renal
[49] = tested on: OVCAR-8 ovarian
[50] = tested on: HOP-18 NSCLC
[51] = tested on: HOP-62 NSCLC
[52] = tested on: SK-MEL-28 melanoma
[53] = tested on: SW-620 colon
[54] = tested on: RXF-631 renal

Measured: TGI

Cc1cc(C(C)C)cc(O)c(=O)c1
> 100 µM: all assays above
